Measured values taken from US20070197435A1, “Process for the synchronization of ovulation for timed breeding without heat detection” (priority 2006, published 2007).

Legend:
[1] = system: ovariectomized estrogen primed gilt model; experiment: Dose response study of deslorelin in SAIB, LH release determined by RIA; type: in vivo, swine; details: single injection of 50 mcg deslorelin in SAIB
Description: A dose response study was performed using deslorelin in SAIB in an ovariectomized estrogen primed gilt model (Barb, et al. (1999) Proceed. Int'l. Symp. Control. Rel. Bioact. Mater., 26).

mature postpartum sows = experiment: Intravulvar deslorelin at estrus detection, estrus length, pregnancy rate and live piglets; type: in vivo, swine; details: 50 μg deslorelin acetate intravulvar at first estrus detection
Description: Sows were assigned randomly in blocks of two to either control or to be injected intravulvar with 50 mcg of deslorelin in SAIB at the time of estrus detection for sows first detected in estrus in the a.m. and 12 hours later for those first detected in estrus in the p.m. Treated animals were bred Al upon detected estrus and again 24 hours later if still in estrus. Controls received a saline injection on first detected estrus behavior estrus detection and were bred according to the farm's normal procedures. Saline sows bred at detected estrus consistent with farm sows. Deslorelin sows injected intravulvar with 1 ml (50 μg deslorelin acetate) at first estrus detection and AI, then AI again if in estrus the next day. Live piglet number 0.6>in Deslorelin versus Saline sows.

CCNC(=O)[C@@H]1CCCN1C(=O)[C@H](CCCN=C(N)N)NC(=O)[C@H](CC(C)C)NC(=O)[C@@H](Cc1c[nH]c2ccccc12)NC(=O)[C@H](Cc1ccc(O)cc1)NC(=O)[C@H](CO)NC(=O)[C@H](Cc1c[nH]c2ccccc12)NC(=O)[C@H](Cc1cnc[nH]1)NC(=O)[C@@H]1CCC(=O)N1 [Deslorelin, deslorelin] was tested, and the “Time by which LH returned to base level” value [1] was ≤ 18 h and the “Live piglet number, greater in Deslorelin versus Saline sows (per litter)” value (mature postpartum sows) was 0.6.
